In patent publication US20210137938A1, “NUPR1 INHIBITION FOR TREATING CANCER” (INSTITUT NATIONAL DE SANTE ET DE LA RECHERCHE MEDICALE …, priority 2018, published 2021):

Columns and labels:
NUPR1 [1] = biological target: T1, NUPR1 (Homo sapiens, UniProt O60356); assay: Isothermal titration calorimetry of NUPR1-compound interaction; settings: ITC, 25° C, sodium phosphate 20 mM pH 7.0, 1% DMSO, single binding site model; read-out: dissociation constant (Kd)
T1 sequence (O60356 1-82): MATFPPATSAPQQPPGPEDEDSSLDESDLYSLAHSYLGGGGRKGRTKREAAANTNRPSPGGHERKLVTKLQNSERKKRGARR
Description: (c) ITC studies: Target engagement for the different compounds was assessed by isothermal titration calorimetry (the gold standard technique in binding affinity determination), which allowed the thermodynamic characterization of the NUPR1-compound interaction.
Titrations were performed in an AutoiTC200 (MicroCal, Malvern Instruments). A solution of NUPR1 (20 μM, in sodium phosphate 20 mM pH 7.0, 1% DMSO) in the calorimetric cell was titrated with a solution of corresponding compound (200 μM, in sodium phosphate 20 mM pH 7.0, 1% DMSO) located in the injecting syringe.
Because compounds were initially dissolved as concentrated (˜10 mM) stock solutions in pure DMSO, a residual percentage of DMSO was present in the final solutions. […] A standard protocol was employed: 19 titrant injections with 2 μL were programmed with a spacing of 150s, a stirring speed of 750 rpm, and a reference power of 10 μcal/s. From the thermogram (thermal power as a function of time), the binding isotherm (ligand-normalized heats as a function of the molar ratio) was obtained through integration of the individual heat effect associated with each ligand injection. Non-linear least squares regression analysis employing a model considering a single binding site in NUPR1 allowed the estimation of the binding parameters: dissociation constant, biding enthalpy, and stoichiometry.

[2] = tested on: 02.063, LIPC, Foie8b and HN14 cells; assay: Chemosensitivity / PrestoBlue cell viability, four primary pancreatic cancer-derived cells; assay type: cell-based, human; settings: 72 h, 0 to 100 μM, FIG. 1
Description: The biological effect in vitro of the compounds A, B and C were then studied on four well characterized primary pancreatic cancer-derived cells 02.063 and LIPC (Basal subtype), Foie8b (derived from a liver metastasis) and HN14 (Classical subtype).
(§1) The cells were screened for chemosensitivity to these compounds for 72 h with increasing concentrations of the compounds ranging from 0 to 100 μM in 96-well plates. Trifluoperazine was used as the reference compound. Each experiment was performed in triplicate and repeated at least three times. Cell viability was estimated after addition of the PrestoBlue cell viability reagent (Life Technologies) for 3 h.

02.063 cells xenograft = assay: Mice xenografted with 02.063 cells, tumor volume; assay type: in vivo, NMRI-Nude mice
Description: FIG. 2: Variation of the size the tumor of mice xenografted with 02.063 cells in the absence of any treatment (control—administration of a volume of vehicle solution equivalent to the volume of treatment administered to the treated mice) or treated with compound C of the invention (daily treatment of 30 days with 5 mg/kg of this compound). Day 0 on this figure corresponds to the day when the tumors reached 200 mm^3 (so around 1 week after the injection of 15×10^6 cells).
02.063 cells were inoculated subcutaneously (15×10^6 cells) in NMRI-Nude 8-week old mice. When tumors reached 200 mm^3, (around 1 week after the injection), a daily treatment was started for 30 days with 5 mg/kg of the compound C and the control group receiving an equivalent volume of vehicle solution (6 mice in control group, 6 mice treated with compound C).

[3] = Neurological effect on treated mice; assay type: in vivo
Description: Accordingly, Trifluoperazine seemed an interesting compound as anti-cancer agent. However, as indicated in the examples of the present application, increasingly high doses of Trifluoperazine tested in vivo led to neurological effects on immunodeficient mice implanted with human pancreatic cancer cells-derived xenografts.
A similar experiment was performed with Trifluoperazine (data not shown). […] Although relatively efficient as an anticancer agent, the neurological effect found in mice left Trifluoperazine unusable in clinics.

[4] = tested on: HEPG2 (Hepatocellular carcinoma); assay: PrestoBlue cell viability, HEPG2; assay type: cell-based
Description: as §1
(§2) The effect of compound C was also evaluated by treating cellular lines derived from different tumors with increasing concentrations of this compound. The protocol applied is the same as the one mentioned above for cell lines 02-063, HN14, LIPC and Foie8b.

[5] = tested on: MDA-MB-231 (Breast cancer); assay: PrestoBlue cell viability, MDA-MB-231; assay type: cell-based; settings: Homo sapiens, MDA-MB-231, 72 h
Description: as §1, §2

[6] = tested on: MiaPaCa-2, ANOR, AOIPC, 02-136, 01-046, NH01, LIPC, HN14, 01-008 and Foie8b cells; assay: Chemosensitivity / PrestoBlue cell viability, ten primary pancreatic cancer-derived cells; assay type: cell-based; settings: 72 h, 0 to 100 μM, FIG. 4
Description: The biological effect in vitro of the compounds C, I, F, K, L, M, N, D, G and J were studied on ten well characterized primary pancreatic cancer-derived cells: MiaPaCa-2 (Classical subtype), ANOR (Classical subtype), AOIPC (Basal subtype), 02-136 (Basal subtype), 01-046 (Classical subtype), NH01 (Classical subtype), LIPC (Basal subtype), HN14 (Classical subtype), 01-008 (Basal subtype) and Foie8b (derived from a liver metastasis).
The protocol applies was identical to the one previously indicated, i.e.:
as §1, with “plates.” for “plates. Trifluoperazine was used as the reference compound.”

NUPR1 [7] = biological target: T1, NUPR1; settings: Neira et al., 2017; cited from earlier work
[8] = 5 mg/kg daily for 30 days, from tumors of 200 mm^3, FIG. 2

## CCN1CCN(CCCN2c3ccccc3Sc3ccc(C(F)(F)F)cc32)CC1 [Compound A]
NUPR1 [1]
  Kd: 11 µM
[2]
  cell death induced / efficiency to kill pancreatic cancer cells, compared with Trifluoperazine: close to that induced by Trifluoperazine

## CN(C)CCN1CCN(CCCN2c3ccccc3Sc3ccc(C(F)(F)F)cc32)CC1 [Compound C]
NUPR1 [1]
  Kd: 2.1 µM
[2]
  cell death induced / efficiency to kill pancreatic cancer cells, compared with Trifluoperazine: most efficient compound to kill the pancreatic cancer cells
  efficiency relative to Trifluoperazine (times more efficient): around 10 times
02.063 cells xenograft; [8]
  size of the tumors: decreased progressively to almost disappear after 20 days of treatment
  tumor growth: stopped the growth almost immediately
[3]; treatment of xenografted mice, including chronic treatment with 10 mg/kg
  neurological effect: did not show any appreciable neurological effect
[4]; HEPG2, 72 h
  IC50: 0.254 µM
[4]; Homo sapiens, HepG2, 72 h
  IC50: 0.25 µM
[5]
  IC50: 14.1 µM
[6]
  induction of cell death in the different cancer cell lines: particularly efficient (low IC50)

## CN1CCN(CCCN2c3ccccc3Sc3ccc(C(F)(F)F)cc32)CC1 [Trifluoperazine, reference compound]
02.063 cells xenograft; higher dose, data not shown
  tumor growth: rapidly, and almost completely, stopped
02.063 cells xenograft; lowest dose, same period, data not shown
  tumor volume increase compared to the control: 50%
[3]; increasingly high doses, xenografted immunodeficient mice
  neurological effect: neurological effect on treated mice such has lethargy
NUPR1 [7]
  dissociation constant between NUPR1 and Trifluoperazine: low micromolar range

## CCN1CCN(CCCN2c3ccccc3Sc3ccc(C(F)(F)F)cc32)CC1 [Compound B]
NUPR1 [1]
  Kd: 7.1 µM
